Measured values reported in ChEMBL document CHEMBL1201862, “PubChem BioAssay data set” (2004).
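Assay format: 96-well plates, 48-hour exposure. GI50 = concentration required for 50% inhibition of growth.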 Calls of active or inactive are those of the source. Rule as the data show it: active = GI50 up to about 1.1 µM and inactive = higher.

Legend:
Experiment in all cases: NCI-60 cell line screen, 48 h
786-0 = system: 786-0
OVCAR-8 = system: OVCAR-8
CCRF-CEM = system: CCRF-CEM
SK-OV-3 = system: SK-OV-3
A549 = system: A549
SF-295 = system: SF-295
SN12C = system: SN12C
NCI-H23 = system: NCI-H23
SW-620 = system: SW-620
NCI-H226 = system: NCI-H226
HCC 2998 = system: HCC 2998
OVCAR-4 = system: OVCAR-4
EKVX = system: EKVX
ACHN = system: ACHN

Structure (SMILES) | GI50 (786-0) | GI50 (OVCAR-8) | GI50 (CCRF-CEM) | GI50 (SK-OV-3) | GI50 (A549) | GI50 (SF-295) | GI50 (SN12C) | GI50 (NCI-H23) | GI50 (SW-620) | GI50 (NCI-H226) | GI50 (HCC 2998) | GI50 (OVCAR-4) | GI50 (EKVX) | GI50 (ACHN)
N=C1SCCS1 | > 100 µM (inactive) | > 100 µM (inactive) | > 100 µM (inactive) | > 100 µM (inactive) | > 100 µM (inactive) | > 100 µM (inactive) | > 100 µM (inactive) | > 100 µM (inactive) | > 100 µM (inactive) | > 100 µM (inactive) | > 100 µM (inactive) | > 100 µM (inactive) | > 100 µM (inactive) | > 100 µM (inactive)
CO[C@@H]1C=C[C@@]23c4cc5c(cc4C(=O)O[C@H]2CN(C)[C@H]3C1)OCO5 | > 100 µM (inactive) | > 100 µM (inactive) | > 100 µM (inactive) | > 100 µM (inactive) | > 100 µM (inactive) | > 100 µM (inactive) | > 100 µM (inactive) | > 100 µM (inactive) | > 100 µM (inactive) |  | > 100 µM (inactive) | > 100 µM (inactive) | > 100 µM (inactive) | > 100 µM (inactive)
C=C(Br)C(C)(Br)CCC(Br)C(C)(C)Br (stereo not drawn) | 22.5 µM (inactive) | 17.5 µM (inactive) | 15 µM (inactive) | 40.7 µM (inactive) | 80.2 µM (inactive) | 26.5 µM (inactive) | 21.6 µM (inactive) | 36.4 µM (inactive) | 28.4 µM (inactive) | 35.3 µM (inactive) |  | 39.4 µM (inactive) |  | 57.7 µM (inactive)
C[N+](C)(C)CC(=O)N/N=C(/Cc1nc2ccc(Cl)cc2nc1O)C1=NS(=O)(=O)c2cc(S(N)(=O)=O)c(Cl)cc2N1 | > 100 µM (inactive) | > 100 µM (inactive) | > 100 µM (inactive) | > 100 µM (inactive) | > 100 µM (inactive) | > 100 µM (inactive) | > 100 µM (inactive) | > 100 µM (inactive) | > 100 µM (inactive) |  | > 100 µM (inactive) | > 100 µM (inactive) | 6.75 µM (inactive) | > 100 µM (inactive)
O=C1OC2C=CC1C1(CCOC1=O)C2 (stereo not drawn) | > 100 µM (inactive) | > 100 µM (inactive) | > 100 µM (inactive) |  | > 100 µM (inactive) |  | > 100 µM (inactive) | > 100 µM (inactive) | > 100 µM (inactive) | > 100 µM (inactive) | > 100 µM (inactive) | > 100 µM (inactive) | > 100 µM (inactive) | > 100 µM (inactive)
COc1ccccc1/C=C(\NC(=O)c1ccccc1)c1nc2ccc(Cl)cc2[nH]1 | 27.4 µM (inactive) | 22.8 µM (inactive) | 21.7 µM (inactive) | 37.2 µM (inactive) | 19.6 µM (inactive) |  | 35.2 µM (inactive) | 22.2 µM (inactive) | 29.9 µM (inactive) | 23.3 µM (inactive) |  | 22.9 µM (inactive) | 29.5 µM (inactive) | 21.5 µM (inactive)
CCOc1ccccc1NC(=O)C(=O)C(C(=O)c1ccc2ccccc2c1)C1OC(=O)c2ccccc21 (stereo not drawn) | 7.78 µM (inactive) | 8.49 µM (inactive) | 8.22 µM (inactive) | 15.4 µM (inactive) | 21.4 µM (inactive) |  | 15.5 µM (inactive) | 7.64 µM (inactive) | 6.31 µM (inactive) | 1.82 µM (inactive) | 10.7 µM (inactive) | 4.61 µM (inactive) | 22.2 µM (inactive) | 29.2 µM (inactive)
COc1ccccc1OCC(COC(=O)Nc1ccc(C)cc1)OC(=O)Nc1ccc(C)cc1 (stereo not drawn) | 20 µM (inactive) | 17 µM (inactive) | 18.2 µM (inactive) | 24.7 µM (inactive) | 57.1 µM (inactive) | 21.9 µM (inactive) | 17.9 µM (inactive) | 23.2 µM (inactive) | 14.9 µM (inactive) | 24.7 µM (inactive) | 20.6 µM (inactive) |  | 25 µM (inactive) | 21.8 µM (inactive)
[O-][n+]1c2cc(CBr)c(CBr)cc2[n+]([O-])c2c(O)cccc21 | 1.58 µM (inactive) | 1.82 µM (inactive) | 0.265 µM (active) | 4.86 µM (inactive) | 3.1 µM (inactive) | 1.84 µM (inactive) | 1.73 µM (inactive) | 2.72 µM (inactive) | 1.56 µM (inactive) | 6.61 µM (inactive) |  | 1.8 µM (inactive) | 6.05 µM (inactive) | 1.81 µM (inactive)
O=C(Nc1nnc(S)[nH]1)C(=O)C1C(=O)Nc2ccccc2[S+]1[O-] (stereo not drawn) | > 100 µM (inactive) | > 100 µM (inactive) | > 100 µM (inactive) | > 100 µM (inactive) | > 100 µM (inactive) | > 100 µM (inactive) | > 100 µM (inactive) | > 100 µM (inactive) | > 100 µM (inactive) |  | > 100 µM (inactive) | > 100 µM (inactive) | > 100 µM (inactive) | > 100 µM (inactive)
O=C1N=C2Sc3ccc4ccccc4c3N2C1=O | 19.8 µM (inactive) | 18.4 µM (inactive) | 31.3 µM (inactive) | 15.5 µM (inactive) | 19.6 µM (inactive) | 18.6 µM (inactive) | 20.3 µM (inactive) | 22.5 µM (inactive) | 21.4 µM (inactive) | 22.1 µM (inactive) | 27 µM (inactive) | 17 µM (inactive) | 16.1 µM (inactive) | 28.8 µM (inactive)
c1ccc(SC(CCCCC(Sc2ccccc2)Sc2ccccc2)Sc2ccccc2)cc1 | > 100 µM (inactive) | > 100 µM (inactive) | > 100 µM (inactive) | > 100 µM (inactive) | > 100 µM (inactive) | > 100 µM (inactive) | > 100 µM (inactive) | > 100 µM (inactive) | > 100 µM (inactive) |  | > 100 µM (inactive) | > 100 µM (inactive) | > 100 µM (inactive) | > 100 µM (inactive)
CCCCCCCCCCCCCC(=O)OCC1OC(OC)C(NC(=O)N(CCCl)N=O)C(O)C1O (stereo not drawn) | 2.59 µM (inactive) | 21.8 µM (inactive) | 10.3 µM (inactive) |  | 15.6 µM (inactive) | 7.43 µM (inactive) | 25.5 µM (inactive) | 12.9 µM (inactive) | 8.79 µM (inactive) | 24.8 µM (inactive) | 28.1 µM (inactive) | 20.6 µM (inactive) |  | 10.5 µM (inactive)
Cc1ccc(NC(=O)C(=O)C(C(=O)/C=C/c2ccccc2)C2OC(=O)c3ccccc32)c(C)c1 (stereo not drawn) | > 100 µM (inactive) |  | > 100 µM (inactive) | > 100 µM (inactive) | > 100 µM (inactive) | > 100 µM (inactive) | > 100 µM (inactive) | > 100 µM (inactive) | > 100 µM (inactive) | > 100 µM (inactive) | > 100 µM (inactive) | > 100 µM (inactive) | > 100 µM (inactive) | > 100 µM (inactive)
COc1ccc2oc(-c3ccc(OC)c(OC)c3OC)cc(=O)c2c1 | 72.4 µM (inactive) |  | 35.2 µM (inactive) | > 100 µM (inactive) | 36.6 µM (inactive) | 51.6 µM (inactive) | 53.3 µM (inactive) | 43.3 µM (inactive) | 65.2 µM (inactive) | 10.5 µM (inactive) | 52.7 µM (inactive) | 38.7 µM (inactive) | 33.1 µM (inactive) | 61.8 µM (inactive)
